From patent US20150191469A1, “COMPOUNDS AND METHODS FOR TREATING HIV” (priority 2012, published 2015) come the findings set out here.

The test system of this test is HIV. The test can be described thus: MT4 assay: antiviral HIV activity (cell protection, cell titer glo readout at 96 hours). In kind it is cell-based. Particulars: Human immunodeficiency virus 1, MT4, 96 h, MT4 cells, cell titer glo readout at 96 hours, 10 point dose response; read-out: HIV MT4 Assay IC50. On the procedure:
Antiviral HIV activity and cytotoxicity values for compounds of the invention from Table 1 were measured in parallel in the HTLV-1 transformed cell line MT-4 based on the method previously described (Hazen et al., 2007, In vitro antiviral activity of the novel, tyrosyl-based human immunodeficiency virus (HIV) type 1 protease inhibitor brecanavir (GW640385) in combination with other antiretrovirals and against a panel of protease inhibitor-resistant HIV (Hazen et al., “In vitro antiviral activity of the novel, tyrosyl-based human immunodeficiency virus (HIV) type 1 protease inhibitor brecanavir (GW640385) in combination with other antiretrovirals and against a panel of protease inhibitor-resistant HIV”, Antimicrob. Agents Chemother. 2007, 51: 3147-3154; and Pauwels et al., “Sensitive and rapid assay on MT-4 cells for the detection of antiviral compounds against the AIDS virus”, J. of Virological Methods 1987, 16: 171-185).
Luciferase activity was measured 96 hours later by adding a cell titer glo (Promega, Madison, Wis.). Percent inhibition of cell protection data was plotted relative to no compound control. Under the same condition, cytotoxicity of the compounds was determined using cell titer Glo™ (Promega, Madison, Wis.). IC50s were determined from a 10 point dose response curve using 3-4-fold serial dilution for each compound, which spans a concentration range >1000 fold.
These values are plotted against the molar compound concentrations using the standard four parameter logistic equation:
y=((Vmax*x̂n)/(K̂n+x̂n))+Y2
Y2=minimum y n=slope factor
Vmax=maximum y x=compound concentration [M]
Background: ATP-based viability assays read luminescence as a measure of living cells.
Consider `Cc1nc2c(cc(-c3ccnc(-c4ccc5cnn(C)c5c4)c3)n2C)c(-c2cc(F)c3c(c2C)CCCO3)c1[C@H](OC(C)(C)C)C(=O)O` (atropisomer, axis not shown) [Example 41], for which the IC50 is 4.6 nM. In the case of `Cc1nc2c(cc(-c3ccnc(-c4ccc5c(c4C)NCCO5)c3)n2C)c(-c2cc(F)c3c(c2C)CCCO3)c1[C@H](OC(C)(C)C)C(=O)O` (atropisomer, axis not shown) [Example 42] it was 3.2 nM; in that of `Cc1noc(C)c1-c1cc(-c2cc3c(-c4cc(F)c5c(c4C)CCCO5)c([C@H](OC(C)(C)C)C(=O)O)c(C)nc3n2C)ccn1` (atropisomer, axis not shown) [Example 43], 72.9 nM. As for `Cc1nc2c(cc(-c3ccnc(-c4ccc(N5CCCC5)nc4)c3)n2C)c(-c2cc(F)c3c(c2C)CCCO3)c1[C@H](OC(C)(C)C)C(=O)O` (atropisomer, axis not shown) [Example 45], the figure is 4.8 nM. As for `Cc1nc2c(cc(-c3ccnc(-c4ccncc4)c3)n2C)c(-c2cc(F)c3c(c2C)CCCO3)c1[C@H](OC(C)(C)C)C(=O)O` (atropisomer, axis not shown) [Example 46], the figure is 7.8 nM; as for `Cc1nc2c(cc(-c3ccnc(-c4ccc5c(c4)CCN(C4COC4)C5)c3)n2C)c(-c2cc(F)c3c(c2C)CCCO3)c1[C@H](OC(C)(C)C)C(=O)O` (atropisomer, axis not shown) [Example 47], 5.6 nM.

For the compound `Cc1nc2c(cc(-c3ccnc(-c4ccc5c(c4)CN(C4COC4)CC5)c3)n2C)c(-c2cc(F)c3c(c2C)CCCO3)c1[C@H](OC(C)(C)C)C(=O)O` (atropisomer, axis not shown) [Example 48], the concentration for half-maximal inhibition (IC50) turned out to be 4.4 nM.

For the compound `Cc1nc2c(cc(-c3ccnc(-c4ccc(O)c(N)c4)c3)n2C)c(-c2cc(F)c3c(c2C)CCCO3)c1[C@H](OC(C)(C)C)C(=O)O` (atropisomer, axis not shown) [Example 49], the IC50 turned out to be 114 nM. In the case of `Cc1nc2c(cc(-c3ccnc(-c4ccc5c(c4)NCCO5)c3)n2C)c(-c2cc(F)c3c(c2C)CCCO3)c1[C@H](OC(C)(C)C)C(=O)O` (atropisomer, axis not shown) [Example 50] it was 8.7 nM; in that of `COc1ncc(-c2cc(-c3cc4c(-c5cc(F)c6c(c5C)CCCO6)c([C@H](OC(C)(C)C)C(=O)O)c(C)nc4n3C)ccn2)cn1` (atropisomer, axis not shown) [Example 52], 13.9 nM; in that of `Cc1nc2c(cc(-c3ccnc(-c4ccc5cn(C)nc5c4)c3)n2C)c(-c2cc(F)c3c(c2C)CCCO3)c1[C@H](OC(C)(C)C)C(=O)O` (atropisomer, axis not shown) [Example 53], 2.1 nM. Turning to `Cc1nc2c(cc(-c3ccnc(-c4ccc5c(cnn5C5CC5)c4)c3)n2C)c(-c2cc(F)c3c(c2C)CCCO3)c1[C@H](OC(C)(C)C)C(=O)O` (atropisomer, axis not shown) [Example 54], the IC50 turned out to be 4.6 nM. On to `Cc1nc2c(cc(-c3ccnc(-c4ccc5[nH]c(=O)[nH]c5c4)c3)n2C)c(-c2cc(F)c3c(c2C)CCCO3)c1[C@H](OC(C)(C)C)C(=O)O` (atropisomer, axis not shown) [Example 55], for which the IC50 came out at 410 nM. As for `Cc1nc2c(cc(-c3ccnc(-c4ccc5c(c4)NCC5)c3)n2C)c(-c2cc(F)c3c(c2C)CCCO3)c1[C@H](OC(C)(C)C)C(=O)O` (atropisomer, axis not shown) [Example 56], the figure is 15 nM; as for `Cc1nc2c(cc(-c3ccnc(-c4ccc5c(cnn5C)c4)c3)n2C)c(-c2cc(F)c3c(c2C)CCCO3)c1[C@H](OC(C)(C)C)C(=O)O` (atropisomer, axis not shown) [Example 57], 1.4 nM; as for `Cc1nc2c(cc(-c3ccnc(-c4cccc5c4cnn5C)c3)n2C)c(-c2cc(F)c3c(c2C)CCCO3)c1[C@H](OC(C)(C)C)C(=O)O` (atropisomer, axis not shown) [Example 58], 5.4 nM. As for `Cc1nc2c(cc(-c3ccnc(-c4cccc5cnn(C)c45)c3)n2C)c(-c2cc(F)c3c(c2C)CCCO3)c1[C@H](OC(C)(C)C)C(=O)O` (atropisomer, axis not shown) [Example 59], the figure is 16 nM. In the case of `Cc1nc2c(cc(-c3ccnc(-c4ccc5c(c4)nnn5C)c3)n2C)c(-c2cc(F)c3c(c2C)CCCO3)c1[C@H](OC(C)(C)C)C(=O)O` (atropisomer, axis not shown) [Example 60] it was 3.7 nM. Take `Cc1nc2c(cc(-c3ccnc(-c4cnc5[nH]ccc5c4)c3)n2C)c(-c2cc(F)c3c(c2C)CCCO3)c1[C@H](OC(C)(C)C)C(=O)O` (atropisomer, axis not shown) [Example 62]: the concentration for half-maximal inhibition (IC50) was determined as 2.9 nM. In the case of `Cc1nc2c(cc(-c3ccnc(-n4ccnc4C)c3)n2C)c(-c2cc(F)c3c(c2C)CCCO3)c1[C@H](OC(C)(C)C)C(=O)O` (atropisomer, axis not shown) [Example 63] it was 15.4 nM. Consider `Cc1nc2c(cc(-c3ccnc(-c4cnc5c(cnn5C)c4)c3)n2C)c(-c2cc(F)c3c(c2C)CCCO3)c1[C@H](OC(C)(C)C)C(=O)O` (atropisomer, axis not shown) [Example 66], for which the IC50 was determined as 8.6 nM. As for `Cc1nc2c(cc(-c3ccnc(-c4ccn5cc(C(F)(F)F)nc5c4)c3)n2C)c(-c2cc(F)c3c(c2C)CCCO3)c1[C@H](OC(C)(C)C)C(=O)O` (atropisomer, axis not shown) [Example 67], the figure is 45 nM; as for `Cc1nc2c(cc(-c3ccnc(-c4ccc5[nH]ncc5c4C)c3)n2C)c(-c2cc(F)c3c(c2C)CCCO3)c1[C@H](OC(C)(C)C)C(=O)O` (atropisomer, axis not shown) [Example 68], 6.4 nM. Regarding `Cc1nc2c(cc(-c3ccnc(-c4ccc(N(C)C)nc4)c3)n2C)c(-c2cc(F)c3c(c2C)CCCO3)c1[C@H](OC(C)(C)C)C(=O)O` (atropisomer, axis not shown) [Example 69], the IC50 was found to be 4.8 nM. As for `Cc1nc2c(cc(-c3ccnc(-c4cnc(N5CCN(C)CC5)nc4)c3)n2C)c(-c2cc(F)c3c(c2C)CCCO3)c1[C@H](OC(C)(C)C)C(=O)O` (atropisomer, axis not shown) [Example 70], the figure is 3.1 nM; as for `Cc1nc2c(cc(-c3ccnc(-c4cnc5c(c4)CCCN5)c3)n2C)c(-c2cc(F)c3c(c2C)CCCO3)c1[C@H](OC(C)(C)C)C(=O)O` (atropisomer, axis not shown) [Example 72], 4.6 nM. In the case of `Cc1nc2c(cc(-c3ccnc(N4CCn5c(C)nnc5C4)c3)n2C)c(-c2cc(F)c3c(c2C)CCCO3)c1[C@H](OC(C)(C)C)C(=O)O` (atropisomer, axis not shown) [Example 79] it was 645 nM; in that of `Cc1nc2c(cc(-c3ccnc(N4CCC(C)CC4)c3)n2C)c(-c2cc(F)c3c(c2C)CCCO3)c1[C@H](OC(C)(C)C)C(=O)O` (atropisomer, axis not shown) [Example 80], 21.3 nM; in that of `Cc1nc2c(cc(-c3ccnc(NC4COC4)c3)n2C)c(-c2cc(F)c3c(c2C)CCCO3)c1[C@H](OC(C)(C)C)C(=O)O` (atropisomer, axis not shown) [Example 81], 2280 nM. In the case of `Cc1nc2c(cc(-c3ccnc(N4CCN(C(=O)c5ccccc5)CC4)c3)n2C)c(-c2cc(F)c3c(c2C)CCCO3)c1[C@H](OC(C)(C)C)C(=O)O` (atropisomer, axis not shown) [Example 82] it was 47.7 nM.

What is called IC50 is the concentration needed to halve the response being measured.
